These results are taken from patent publication US20260365677A1, “NEW CONTRAST AGENTS FOR USE IN DIAGNOSTIC IMAGING” (Bayer Aktiengesellschaft, priority 2022, published 2026).

Molecules are shown by their SMILES.

Series [1] concerns multidrug resistance-associated protein 2 (MRP2). Particulars: via MRP2 (cMOAT); cited from earlier work.
Series [2] has as its system organic anion-transporting polypeptides (OATP1B1, OATP1B3). Particulars: via OATP1B1, OATP1B3; cited from earlier work.
Series [3] can be described thus: Exploratory water solubility in 10 mM Tris-HCl buffer, pH 7.4. The format is physicochemical. Particulars: aqueous buffer (10 mM Tris-HCl), 20 °C. How it is done: The exploratory water solubility of the compounds is determined at room temperature (20 °C) in 0.5 mL buffer solution (10 mM Tris-HCl, pH 7.4) in the microcentrifuge tubes (Eppendorf, 2.0 mL safe-lock caps). The solid compounds were added stepwise to the buffer solution. More substance is added once all the suspended material is dissolved until an equilibrium between undissolved and dissolved substance is reached. The suspension was mixed using a shaker (Heidolph Reax 2000) and treated 5 min in an ultrasound bath (Bandelin, Sonorex Super RK255H). The Gadolinium concentration of the test substance in the clear solution is measured by ICP-MS.

A short description of series [4]: Partition coefficient (log P butanol/buffer). The conditions noted are these: 50 mM Tris-HCl, pH 7.4, 10 μM, room temperature. The format is physicochemical. Here is the method: The partition coefficient P (log P=log(Cbutanol/Cbuffer)) was determined in buffered aqueous solution (10 μM of compound in 0.5 mL 50 mM Tris-HCl saturated with Butanol, pH 7.4) and 1-butanol 1+1 and the mixture was shaken for 2 h at room temperature (n=3). The Gd-concentrations in each phase. CObutano, and Cbuffer were measured by ICP-MS (The Chemistry of Contrast Agents in Medical Magnetic Resonance Imaging” 2nd Ed. Merbach A S, Helm L, Toth E, eds. Hoboken, NJ: Wiley 2013).

The conditions of series [5]: 1.5 T, 37 °C, from Rohrer et al., cited from earlier work; for r1 plasma: bovine plasma instead of human plasma.
Series [6] concerns plasma proteins. The conditions noted are these: cited from earlier work.
For series [7] the following is noted: of the administered dose; cited from earlier work.
In series [8] the test system is dentate nucleus. Particulars: after repeated administration; cited from earlier work.
Series [9] deals with focal liver lesions. The conditions noted are these: patients with healthy liver or oncologic/cirrhotic liver patients; cited from earlier work.
A short description of series [10]: Complex stability (transmetallation) with Zn2+ in phosphate buffer. Particulars: over 72 hours, 2.5 mM Zn^2+, 26 mM phosphate buffer, 37 °C. It counts as physicochemical. Here is the method: The used method is described elsewhere (Laurent S et al., Stability of MRI paramagnetic contrast media: a proton relaxometric protocol for transmetallation assessment. Invest Radiol. 2001 February; 36(2):115-22). […] If test compounds are instable under these conditions, transmetallation during this test would lead to the formation of the Zn^2+ complex of the test item, while Gd^3+ is released and precipitated as highly insoluble GdPO4.
After 3d of incubation T1 relaxation time was observed.

On to `CCOc1ccc(CC(CN(CCN(CC(=O)[O-])CC(=O)[O-])CC(=O)[O-])N(CC(=O)[O-])CC(=O)[O-])cc1.[Gd+3].[Na+].[Na+]` (centres unmarked) [RC1, gadoxetate disodium], for which the “excretion into the bile canaliculi” value in series [1] was “primarily excreted into the bile canaliculi via the multidrug resistance-associated protein 2”. For the same compound, in series [2], the uptake by hepatocytes result is “mainly taken up by hepatocytes via organic anion-transporting polypeptides (OATP1B1, OATP1B3)”. Further, the Solubility in [3] is more than 250 mM. The “Log P” value in series [4] is reported as −2.12. Moreover, in series [5], the r1 plasma is 6.9 L/mmol/s and the r1 water was 4.7 L/mmol/s. For the same compound, the protein binding result in series [6] is reported as “approximately 10%”. For the same compound, the “secretion/excretion into the bile” value in series [7] is on record as “up to 50%”. For the same compound, the “signal intensity in the dentate nucleus” value in series [8] is on record as “increased signal intensity in the dentate nucleus”. Moreover, the “detection and identification of focal liver lesions by liver MRI” value in series [9] was “able to detect and identify focal liver lesions with high specificity and sensitivity”.

Turning to `O=C([O-])CN(CCN(CC(=O)[O-])CC(=O)[O-])CCN(CC(=O)[O-])C(COCc1ccccc1)C(=O)[O-].[Gd+3].[H+].[H+]` (centres unmarked) [RC2, gadobenic acid], the “Log P” value in series [4] was −2.07. Further, in series [5], the r1 plasma was 6.3 L/mmol/s and the r1 water was 4.0 L/mmol/s. Further, the protein binding entry in series [6] is reported as “approximately 10%”.

Consider `O=C([O-])CN1CCN(CC(=O)[O-])CCN([C@H](CO)[C@H](O)CO)CCN(CC(=O)[O-])CC1.[Gd+3]` (racemic) [RC3, gadobutrol], for which, in series [5], the r1 plasma was 5.2 L/mmol/s and the r1 water is 3.3 L/mmol/s. Moreover, the “Transmetallation stability (in words)” value in [10] is “stable”.

In general, Solubility refers to how much of the substance goes into solution per volume. A lower Solubility goes with a poorly soluble substance. In general, Log P refers to a log measure of how a compound divides between an organic and an aqueous phase. Read a high Log P as higher lipophilicity.
